Measured values from paper PMC7337064, “Parsing the functional specificity of Siderocalin/Lipocalin 2/NGAL for siderophores and related small-molecule ligands” (Journal of Structural Biology: X, 2019).

Tests used:
Scn [1] = molecular target: T1, Scn (Homo sapiens, UniProt P80188); test: Fe-ENT/c-di-GMP competition mixing experiment (ultrafilter retentates); format: binding; details: Scn premixed with 25-fold molar excess c-di-GMP, then equimolar Fe-ENT, washed in ultrafilter
T1 construct: made in house
Description: Li and coworkers reported that c-di-GMP could compete with bacterial ferric siderophores for Scn binding, alleviating Scn blockade of bacterial iron acquisition during infection ([Li et al., 2015]). This conclusion was based on a computational inverse docking screen, isothermal titration calorimetry (ITC) binding assays, and bacterial growth assays. However, c-di-GMP is not particularly complementary in shape to the Scn calyx, and lacks elements crucial for calyx binding, though its net negative charge does complement the overall positive charge of the calyx. Also, the reported micromolar KD by ITC for the Scn/c-di-GMP interaction was orders-of-magnitude weaker than the sub-nanomolar KDs of Scn for ferric complexes of bacterial CAM-type siderophores previously determined by FQ ([Abergel et al., 2006a], [Abergel et al., 2006b], [Goetz et al., 2002], [Hoette et al., 2008], [Miethke and Skerra, 2010]). [We noted that Li and coworkers also reported a discrepant micromolar KD for the Scn/Fe-ENT interaction by ITC.] However, this conundrum was easily resolved by a simple mixing experiment not previously performed (Fig. 7C). Colorless apo-Scn protein was premixed with a 25-fold molar excess of colorless c-di-GMP, at a concentration well above the reported micromolar KD, and allowed to equilibrate. Fe-ENT, which is colored a deep red, was then added at an equimolar ratio to Scn. […]

Scn [2] = molecular target: Scn; parameters: method as in Li et al., 2015; details: ref Li et al., 2015; cited from earlier work

T1 sequence (P80188 21-198): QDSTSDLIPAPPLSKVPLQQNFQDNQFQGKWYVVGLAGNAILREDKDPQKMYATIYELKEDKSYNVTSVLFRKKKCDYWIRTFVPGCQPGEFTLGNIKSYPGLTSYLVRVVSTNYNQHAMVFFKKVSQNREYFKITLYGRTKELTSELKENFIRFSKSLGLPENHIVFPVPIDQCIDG

In the case of `Nc1nc2c(ncn2[C@@H]2O[C@@H]3COP(=O)(O)O[C@H]4[C@@H](O)[C@H](n5cnc6c(=O)[nH]c(N)nc65)O[C@@H]4COP(=O)(O)O[C@H]3[C@H]2O)c(=O)[nH]1` [c-di-GMP, cyclic diguanylate monophosphate], the “competition with Fe-ENT for Scn binding” value (Scn [1]) is listed as “too weak to impede binding of ferric siderophores” and the “KD by ITC” value (Scn [2]) is listed as “micromolar”.
